We go through one molecule from PMC9396876, “GRK3 is a poor prognosticator and serves as a therapeutic target in advanced gastric adenocarcinoma” (Journal of Experimental & Clinical Cancer Research : CR, 2022).

pIC50: −log10 of the molar value.

Experiment [1] has as its target T1, GRK2 (Homo sapiens, UniProt P25098).
T1 sequence (P25098 1-689): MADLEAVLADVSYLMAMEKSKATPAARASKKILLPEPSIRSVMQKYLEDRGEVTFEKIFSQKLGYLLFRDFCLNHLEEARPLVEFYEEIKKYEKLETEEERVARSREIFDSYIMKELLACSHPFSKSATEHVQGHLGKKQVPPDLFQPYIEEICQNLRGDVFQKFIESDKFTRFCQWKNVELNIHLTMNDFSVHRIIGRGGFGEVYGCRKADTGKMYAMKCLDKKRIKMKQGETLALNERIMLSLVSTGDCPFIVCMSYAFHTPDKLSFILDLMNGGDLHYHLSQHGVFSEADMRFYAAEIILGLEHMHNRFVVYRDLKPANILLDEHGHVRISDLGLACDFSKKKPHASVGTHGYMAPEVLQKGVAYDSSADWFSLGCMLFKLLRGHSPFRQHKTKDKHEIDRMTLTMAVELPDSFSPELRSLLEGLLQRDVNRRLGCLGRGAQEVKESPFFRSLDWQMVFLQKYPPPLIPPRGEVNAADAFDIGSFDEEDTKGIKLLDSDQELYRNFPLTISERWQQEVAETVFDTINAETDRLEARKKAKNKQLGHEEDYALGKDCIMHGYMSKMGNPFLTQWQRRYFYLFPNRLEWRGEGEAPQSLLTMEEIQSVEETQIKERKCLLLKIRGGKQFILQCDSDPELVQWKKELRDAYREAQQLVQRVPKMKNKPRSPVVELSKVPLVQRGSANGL
In words: in vitro kinase assay (Z-LYTE; ADP-Glo). The format is biochemical. A general note: ADP-Glo first removes unused ATP, then detects ADP through luciferase.

Experiment [2] addresses T2, GRK3 (G protein-coupled receptor kinase 3) (Homo sapiens, UniProt P35626).
T2 construct: recombinant GRK3 protein
T2 sequence (P35626 1-688): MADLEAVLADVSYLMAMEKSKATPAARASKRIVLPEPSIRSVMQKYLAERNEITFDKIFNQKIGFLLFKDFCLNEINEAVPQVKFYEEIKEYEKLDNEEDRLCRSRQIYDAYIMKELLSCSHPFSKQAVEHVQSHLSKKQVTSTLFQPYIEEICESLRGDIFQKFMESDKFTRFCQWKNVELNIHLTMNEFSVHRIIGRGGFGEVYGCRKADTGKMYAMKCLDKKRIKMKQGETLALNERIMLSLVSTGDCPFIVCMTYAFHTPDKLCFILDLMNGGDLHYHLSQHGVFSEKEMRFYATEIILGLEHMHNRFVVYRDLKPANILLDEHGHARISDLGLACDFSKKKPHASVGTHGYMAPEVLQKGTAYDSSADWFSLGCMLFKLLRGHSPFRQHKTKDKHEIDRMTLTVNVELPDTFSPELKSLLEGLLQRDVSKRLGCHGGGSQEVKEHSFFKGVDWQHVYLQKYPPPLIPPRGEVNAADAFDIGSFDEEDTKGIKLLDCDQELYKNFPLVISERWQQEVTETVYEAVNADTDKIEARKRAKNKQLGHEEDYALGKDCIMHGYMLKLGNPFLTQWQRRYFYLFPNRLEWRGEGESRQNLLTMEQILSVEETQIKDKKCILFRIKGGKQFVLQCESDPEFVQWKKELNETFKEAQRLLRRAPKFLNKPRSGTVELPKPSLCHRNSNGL
Nature of the experiment: in vitro kinase assay (Z-LYTE; ADP-Glo). In kind it is biochemical.

`Cn1cc(-c2[nH]c3cc(NC(=O)[C@H](N)C4CCCCC4)cc4c3c2C=NNC4=O)cn1` [LD2]: the negative logarithm of the IC50 (pIC50) – broadly, the negative decadic logarithm of the IC50, by convention in mol/L – in experiment [1] is 5.71; in experiment [2], 7.09.
